{"source": "patent US20110212972A1", "about": "“Compositions and Methods for Treating Female Sexual Dysfunction” (Pfizer Inc, priority 2000, published 2011)", "key": {"MCF-7 cells": {"system": "MCF-7 cells", "assay": "Inhibition of in vitro human breast tumor cell growth, ER-positive MCF-7", "assay_type": "cell-based", "settings": "MCF-7 (ER-positive), 6 days incubation, direct cell counts", "protocol": "(§1) The in vitro antiproliferative effects of (−)-cis-6-phenyl-5-[4-(2-pyrrolidin-1-yl-ethoxy)-phenyl]-5,6,7,8-tetrahydro-naphthalene-2-ol (PPTN) were tested using two types of human breast cancer cell lines: first, MCF-7 cells, which contain ER as well as progesterone receptors (PgR), and second, MDA-MB-231 cells, which lack ER and PgR, and enable the determination of an effect that is independent of the ER mechanism. The effect of PPTN on the growth of these different cell lines was determined by incubation of the cells with various compound concentrations for 6 days.\n(§2) The antiproliferative effects were then determined by direct cell counts."}, "MDA-MB-231 cells": {"system": "MDA-MB-231 cells", "assay": "Inhibition of in vitro human breast tumor cell growth, ER-negative MDA-MB-231", "assay_type": "cell-based", "settings": "MDA-MB-231 (ER-negative), 6 days incubation, direct cell counts", "protocol": "as §1, §2"}}}
{"smiles": "Oc1ccc2c(c1)CC[C@H](c1ccccc1)[C@@H]2c1ccc(OCCN2CCCC2)cc1", "note": "[PPTN, (−)-cis-6-phenyl-5-[4-(2-pyrrolidin-1-yl-ethoxy)-phenyl]-5,6,7,8-tetrahydro-naphthalene-2-ol]", "values": [{"measurement": "IC50 for growth inhibition", "setting": "MCF-7 cells", "value": "3 to 5×10^−11 M"}, {"measurement": "effect on cell growth", "setting": "MCF-7 cells", "value": "inhibited the growth"}, {"measurement": "effect on cell proliferation", "setting": "MDA-MB-231 cells", "value": "did not inhibit cell proliferation"}]}
